From PubChem BioAssay (NCI)
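1) Cells in 96-well plates. 2) Compound, 48 h, 5 concentrations. 3) Linear interpolation between surrounding doses. 4) Unreached endpoint = highest concentration. At the GI50, growth is halved. TGI marks complete inhibition of growth.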

Assays:
Assay in all cases: growth of human tumour cells (NCI), 48 h
[1] = test system: UACC-62 melanoma
[2] = test system: OVCAR-5 ovarian
[3] = test system: SK-MEL-28 melanoma
[4] = test system: PC-3 prostate
[5] = test system: SN12C renal
[6] = test system: IGROV1 ovarian
[7] = test system: HOP-62 NSCLC
[8] = test system: BT-549 breast
[9] = test system: KM12 colon
[10] = test system: HCC-2998 colon

SMILES	GI50 [1] [µM]	TGI [1] [µM]	GI50 [2] [µM]	TGI [2] [µM]	GI50 [3] [µM]	TGI [3] [µM]	GI50 [4] [µM]	TGI [4] [µM]	GI50 [5] [µM]	TGI [5] [µM]	GI50 [6] [µM]	TGI [6] [µM]	GI50 [7] [µM]	TGI [7] [µM]	GI50 [8] [µM]	TGI [8] [µM]	GI50 [9] [µM]	TGI [9] [µM]	TGI [10] [µM]	GI50 [10] [µM]
NC(N)=Nc1nc2ccccc2o1	> 100	> 100	> 100	> 100	> 100	> 100	> 100	> 100	> 100	> 100	> 100	> 100	> 100	> 100	> 100	> 100	> 100	> 100	–	–
CCCCCCCC(=O)OCC1OC(n2cc(F)c(=O)[nH]c2=O)C(N)C(OC(=O)CCCCCCC)C1O (centres undefined)	–	32.4	–	–	–	34.1	–	–	–	32.5	–	47.7	–	32.5	–	–	–	42.3	35.3	–
CC(C)C1CN(C(=O)OCc2ccccc2)C2N1C(=O)C2(C)OCc1ccccc1 (centres undefined)	–	> 100	–	–	–	> 100	–	–	–	> 100	–	> 100	–	> 100	–	–	–	–	> 100	–
CCC(C)(C)n1c(C)nc2c1C(=O)c1ccccc1C2=O	–	36.1	–	–	–	> 100	–	–	–	> 100	–	> 100	–	> 100	–	–	–	> 100	> 100	–
O=S(=O)(OI(OI(OS(=O)(=O)C(F)(F)F)c1ccccc1)c1ccccc1)C(F)(F)F	–	> 100	–	> 100	–	–	–	–	–	> 100	–	> 100	–	> 100	–	–	–	> 100	> 100	–
Cc1cc(C)nc(NS(=O)(=O)c2ccc(Nc3c4ccccc4nc4c(C(=O)N5CCN(CCO)CC5)cccc34)cc2)n1	–	> 100	–	> 100	–	> 100	–	–	–	> 100	–	> 100	–	> 100	–	–	–	> 100	> 100	–
COC(=O)c1c2c(c(C)[n+]([O-])c1C)C(=O)C(NCc1ccc(Br)cc1)=CC2=O	1.17	2.69	–	–	4.13	> 100	–	–	1.66	4.09	–	–	2.38	7.07	1.73	3.52	–	–	4.83	1.88
CN(C)CCNC(=O)Cc1ccccc1Nc1c(Cl)cccc1Cl	–	33.3	–	24.2	–	33.7	–	–	–	31.4	–	38.4	–	28.5	–	–	–	35.7	24.7	–
CCCCCCCCSC1=C(Cl)C(=O)C(OC)=C(OC)C1=O	–	24	–	21.1	–	–	–	31.9	–	18.4	–	32.2	–	51.7	–	31.4	–	37.7	32.4	–
O=C1C/C(Br)=C\c2ccccc2-c2ccccc21	–	5.09	–	6.06	–	2.8	–	–	–	4.8	–	9.02	–	9.67	–	–	–	11.5	19.3	–
O=C1c2cccc3cccc(c23)C(=O)N1CCN(CCO)CCO	–	37.5	–	49.1	–	> 100	–	–	–	74.3	–	> 100	–	> 100	–	–	–	> 100	84.9	–
Nc1c(S(=O)(=O)c2ccc(Cl)cc2)c2nc3ccccc3nc2n2ccnc12	–	–	–	> 100	–	> 100	–	–	–	> 100	–	> 100	–	–	–	–	–	> 100	> 100	–
